{"source": "patent US9145376B2", "about": "“Quinazolinone inhibitors of dynein” (The Rockefeller University, priority 2011, dated 2015)", "assay_type_in_all_cases": "cell-based", "key": {"[1]": {"test_system": "mitotic spindle of Shh-EGFP (NIH-3T3) cells (cytoplasmic dynein 1)", "assay": "Imaging of mitotic spindle assembly", "conditions": "50 μM, 60 minutes, MG132-arrested cells", "from_the_text": "In addition to trafficking macromolecules out of the primary cilium, cytoplasmic dynein complexes have other cellular functions. For example, cytoplasmic dynein 1 acts in concert with dynactin and the nuclear protein NuMA to crosslink and focus the minus ends of microtubules within the mitotic spindle. These actions create the canonical fusiform shape and localize γ-tubulin-containing, microtubule-nucleating complexes to the spindle poles. Cytoplasmic dynein 1 inhibition by blocking antibodies or dominant negative constructs disrupts mitotic spindle assembly, resulting in splayed microtubule ends and reduced γ-tubulin recruitment. To determine whether ciliobrevins can recapitulate these phenotypes, we treated a metaphase-enriched population of NIH-3T3 cells with 50 μM of either example 31 or […] for one hour and examined their mitotic structures by confocal immunofluorescence microscopy.\nShh-EGFP cells were cultured until they achieved approximately 70% confluency and then split 1:5 into 24-well plates containing, poly-D-lysine-coated 12-mm glass coverslips in DMEM containing 10% calf serum, 100 U/mL penicillin, and 0.1 mg/mL streptomycin. […]"}, "[2]": {"test_system": "primary cilia of Shh-EGFP cells", "assay": "Quantitative assessment of ciliogenesis (Arl13b staining, cilia size)", "conditions": "24 hours"}, "[3]": {"test_system": "ciliary IFT88 in Shh-EGFP cells (cytoplasmic dynein 2-dependent retrograde transport)", "assay": "Quantitative assessment of IFT88 trafficking", "conditions": "50 μM, one hour, compared to DMSO or compound 16", "from_the_text": "As a microtubule-based compartment, the cilium utilizes specific motor proteins to move macromolecules along its axoneme. Intraflagellar transport (IFT) of cargo can be resolved into anterograde trafficking, which requires the plus end-directed kinesin-2 motor and the IFTB multisubunit complex, and retrograde trafficking, which utilizes the minus end-directed cytoplasmic dynein 2 motor and the IFTA complex. The genetic disruption of individual kinesin-2, cytoplasmic dynein 2, or IFT complex subunits has been previously found to induce ciliary defects and perturb Hh signaling. […] To confirm that ciliobrevins target cilia trafficking in general rather than a Hh pathway-specific process, we examined the effect of ciliobrevins on the subcellular localization of IFTB component IFT88, which requires cytoplasmic dynein 2-dependent retrograde transport for its return to the ciliary basal body.\nShh-EGFP cells were seeded into 24-well plates containing poly-D-lysine-coated 12-mm glass coverslips at a density of 30,000 cells/well and cultured for 24 hours in DMEM containing 10% calf serum, 100 U/mL penicillin, and 0.1 mg/mL streptomycin. […] Ciliary IFT levels were quantified essentially as described for Gli2 though no background was subtracted. At least 25 cilia were analyzed to determine the average ciliary IFT88 level for each experimental condition."}}}
{"smiles": "N#C/C(C(=O)c1ccccc1)=C1\\NC(=O)c2ccccc2N1", "note": "[Example 16, 3-oxo-2-(4-oxo-3,4-dihydroquinazolin-2(1H)-ylidene)-3-phenylpropanenitrile]", "values": [{"measurement": "mitotic spindle morphology (γ-tubulin-positive pole focusing)", "setting": "[1]", "value": "normal spindle morphologies"}, {"measurement": "cilia size in response to increasing concentration (FIG. 1)", "setting": "[2]", "value": "no decrease in cilia size"}]}
{"smiles": "N#C/C(C(=O)c1ccc(Cl)cc1Cl)=C1\\NC(=O)c2ccc(Cl)cc2N1", "note": "[Example 31, 2-(7-chloro-4-oxo-3,4-dihydroquinazolin-2(1H)-ylidene)-3-(2,4-dichlorophenyl)-3-oxo-propanenitrile]", "values": [{"measurement": "mitotic spindle morphology (γ-tubulin-positive pole focusing)", "setting": "[1]", "value": "failed to achieve mitotic spindles with focused γ-tubulin-positive poles"}, {"measurement": "IFT88 levels at the distal tip of primary cilia", "setting": "[3]", "value": "significant increase"}]}
{"smiles": "N#C/C(C(=O)c1ccc(Cl)cc1Cl)=C1\\NC(=O)c2ccccc2N1", "note": "[Example 1, 3-(2,4-dichlorophenyl)-3-oxo-2-(4-oxo-3,4-dihydroquinazolin-2(1H)-ylidene)propanenitrile]", "values": [{"measurement": "cilia size in response to increasing concentration (FIG. 1)", "setting": "[2]", "value": "dose-dependent decrease in cilia size"}]}
